# Measured values from PubChem BioAssay (NCI).
#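 Exposure lasted 48 hours, with cells grown in 96-well plates and compounds tested at five concentrations. GI50: concentration for 50% inhibition of growth. TGI: concentration producing complete growth inhibition.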
# What was measured:
# Assay in all cases: DTP human tumour cell line panel, 48 h
# NCI-H226 lung = tested on: NCI-H226 lung
# LOX IMVI melanoma = tested on: LOX IMVI melanoma
# T-47D breast = tested on: T-47D breast
# RPMI-8226 leukemia = tested on: RPMI-8226 leukemia
# HOP-92 NSCLC = tested on: HOP-92 NSCLC
# UACC-62 melanoma = tested on: UACC-62 melanoma
# CCRF-CEM leukemia = tested on: CCRF-CEM leukemia
# ACHN renal = tested on: ACHN renal
# NCI/ADR-RES ovarian = tested on: NCI/ADR-RES ovarian
# HS 578T breast = tested on: HS 578T breast
# 786-0 renal = tested on: 786-0 renal
# NCI-H460 lung = tested on: NCI-H460 lung
# HCT-116 colon = tested on: HCT-116 colon
# A549 NSCLC = tested on: A549 NSCLC
# SW-620 colon = tested on: SW-620 colon
# OVCAR-4 ovarian = tested on: OVCAR-4 ovarian
# HCT-15 colon = tested on: HCT-15 colon
# EKVX NSCLC = tested on: EKVX NSCLC
# SF-268 CNS = tested on: SF-268 CNS
# SK-MEL-28 melanoma = tested on: SK-MEL-28 melanoma
# MOLT-4 leukemia = tested on: MOLT-4 leukemia
# HL-60(TB) leukemia = tested on: HL-60(TB) leukemia
# COLO 205 colon = tested on: COLO 205 colon
# HCC-2998 colon = tested on: HCC-2998 colon
# SK-OV-3 ovarian = tested on: SK-OV-3 ovarian
# K-562 leukemia = tested on: K-562 leukemia
# UACC-257 melanoma = tested on: UACC-257 melanoma
# SNB-75 CNS = tested on: SNB-75 CNS
# DU-145 prostate = tested on: DU-145 prostate
# U251 CNS = tested on: U251 CNS
# PC-3 prostate = tested on: PC-3 prostate
# MDA-MB-231 breast = tested on: MDA-MB-231 breast
# SK-MEL-2 melanoma = tested on: SK-MEL-2 melanoma
# MALME-3M melanoma = tested on: MALME-3M melanoma
# NCI-H23 lung = tested on: NCI-H23 lung
# BT-549 breast = tested on: BT-549 breast
# M14 melanoma = tested on: M14 melanoma
# OVCAR-8 ovarian = tested on: OVCAR-8 ovarian
# SR leukemia = tested on: SR leukemia
# NCI-H522 lung = tested on: NCI-H522 lung
# OVCAR-3 ovarian = tested on: OVCAR-3 ovarian
# MCF7 breast = tested on: MCF7 breast
# HOP-62 NSCLC = tested on: HOP-62 NSCLC
# RXF 393 renal = tested on: RXF 393 renal
# CAKI-1 renal = tested on: CAKI-1 renal
# SNB-19 CNS = tested on: SNB-19 CNS
# TK-10 renal = tested on: TK-10 renal
# OVCAR-5 ovarian = tested on: OVCAR-5 ovarian
# MDA-MB-435 = tested on: MDA-MB-435
# UO-31 renal = tested on: UO-31 renal
# HT29 colon = tested on: HT29 colon
# SN12C renal = tested on: SN12C renal
# SF-539 CNS = tested on: SF-539 CNS
# IGROV1 ovarian = tested on: IGROV1 ovarian
# KM12 colon = tested on: KM12 colon
smiles,measurement,setting,value
CC1=C2C(=C[C@@](C)(C=O)[C@@H]2O)C(=O)[C@](C)(O)C12CC2,GI50,NCI-H226 lung,2070 nM
same,TGI,NCI-H226 lung,5090 nM
same,GI50,LOX IMVI melanoma,1160 nM
same,TGI,LOX IMVI melanoma,4430 nM
same,GI50,T-47D breast,2390 nM
same,TGI,T-47D breast,8860 nM
same,GI50,RPMI-8226 leukemia,7280 nM
same,TGI,RPMI-8226 leukemia,52200 nM
same,GI50,HOP-92 NSCLC,2390 nM
same,TGI,HOP-92 NSCLC,6680 nM
same,GI50,UACC-62 melanoma,1520 nM
same,TGI,UACC-62 melanoma,3670 nM
same,GI50,CCRF-CEM leukemia,1740 nM
same,TGI,CCRF-CEM leukemia,> 100000 nM
same,GI50,ACHN renal,1560 nM
same,TGI,ACHN renal,8200 nM
same,GI50,NCI/ADR-RES ovarian,1560 nM
same,TGI,NCI/ADR-RES ovarian,5700 nM
same,GI50,HS 578T breast,1990 nM
same,TGI,HS 578T breast,5360 nM
same,GI50,786-0 renal,2400 nM
same,TGI,786-0 renal,10100 nM
same,GI50,NCI-H460 lung,260 nM
same,TGI,NCI-H460 lung,710 nM
same,GI50,HCT-116 colon,569 nM
same,TGI,HCT-116 colon,> 100000 nM
same,GI50,A549 NSCLC,476 nM
same,TGI,A549 NSCLC,11900 nM
same,GI50,SW-620 colon,881 nM
same,TGI,SW-620 colon,> 100000 nM
same,GI50,OVCAR-4 ovarian,2040 nM
same,TGI,OVCAR-4 ovarian,7070 nM
same,GI50,HCT-15 colon,842 nM
same,TGI,HCT-15 colon,9100 nM
same,GI50,EKVX NSCLC,2800 nM
same,TGI,EKVX NSCLC,8860 nM
same,GI50,SF-268 CNS,2590 nM
same,TGI,SF-268 CNS,10300 nM
same,GI50,SK-MEL-28 melanoma,1960 nM
same,TGI,SK-MEL-28 melanoma,5030 nM
same,GI50,MOLT-4 leukemia,2180 nM
same,TGI,MOLT-4 leukemia,> 100000 nM
same,GI50,HL-60(TB) leukemia,1470 nM
same,TGI,HL-60(TB) leukemia,6970 nM
same,GI50,COLO 205 colon,1120 nM
same,TGI,COLO 205 colon,4680 nM
same,GI50,HCC-2998 colon,1380 nM
same,TGI,HCC-2998 colon,3480 nM
same,GI50,SK-OV-3 ovarian,2660 nM
same,TGI,SK-OV-3 ovarian,7790 nM
same,GI50,K-562 leukemia,2910 nM
same,TGI,K-562 leukemia,> 100000 nM
same,GI50,UACC-257 melanoma,3150 nM
same,TGI,UACC-257 melanoma,15200 nM
same,GI50,SNB-75 CNS,1580 nM
same,TGI,SNB-75 CNS,3950 nM
same,GI50,DU-145 prostate,340 nM
same,TGI,DU-145 prostate,10100 nM
same,GI50,U251 CNS,1050 nM
same,TGI,U251 CNS,> 100000 nM
same,GI50,PC-3 prostate,1550 nM
same,TGI,PC-3 prostate,8260 nM
same,GI50,MDA-MB-231 breast,2490 nM
same,TGI,MDA-MB-231 breast,7550 nM
same,GI50,SK-MEL-2 melanoma,2080 nM
same,TGI,SK-MEL-2 melanoma,4580 nM
same,GI50,MALME-3M melanoma,1610 nM
same,TGI,MALME-3M melanoma,3830 nM
same,GI50,NCI-H23 lung,666 nM
same,TGI,NCI-H23 lung,2450 nM
same,GI50,BT-549 breast,1590 nM
same,TGI,BT-549 breast,4730 nM
same,GI50,M14 melanoma,1780 nM
same,TGI,M14 melanoma,5110 nM
same,GI50,OVCAR-8 ovarian,2390 nM
same,TGI,OVCAR-8 ovarian,> 100000 nM
same,GI50,SR leukemia,2160 nM
same,TGI,SR leukemia,> 100000 nM
same,GI50,NCI-H522 lung,1790 nM
same,TGI,NCI-H522 lung,4940 nM
same,GI50,OVCAR-3 ovarian,1350 nM
same,TGI,OVCAR-3 ovarian,5770 nM
same,GI50,MCF7 breast,381 nM
same,TGI,MCF7 breast,10500 nM
same,GI50,HOP-62 NSCLC,2530 nM
same,TGI,HOP-62 NSCLC,14100 nM
same,GI50,RXF 393 renal,277 nM
same,TGI,RXF 393 renal,799 nM
same,GI50,CAKI-1 renal,541 nM
same,TGI,CAKI-1 renal,22000 nM
same,GI50,SNB-19 CNS,2500 nM
same,TGI,SNB-19 CNS,12500 nM
same,GI50,TK-10 renal,2700 nM
same,TGI,TK-10 renal,8770 nM
same,GI50,OVCAR-5 ovarian,424 nM
same,TGI,OVCAR-5 ovarian,4440 nM
same,GI50,MDA-MB-435,2070 nM
same,TGI,MDA-MB-435,4720 nM
same,GI50,UO-31 renal,1700 nM
same,TGI,UO-31 renal,9010 nM
same,GI50,HT29 colon,1130 nM
same,TGI,HT29 colon,88000 nM
same,GI50,SN12C renal,2850 nM
same,TGI,SN12C renal,51500 nM
same,GI50,SF-539 CNS,1480 nM
same,TGI,SF-539 CNS,3330 nM
same,GI50,IGROV1 ovarian,789 nM
same,TGI,IGROV1 ovarian,5760 nM
same,GI50,KM12 colon,3090 nM
same,TGI,KM12 colon,22200 nM
